Measured values as given in ChEMBL document CHEMBL4513149, “CO-ADD screening of MMV (CH) - MMV compounds” (2021).
In brackets after ≈: the same amount, converted by molar mass.

Columns and labels:
Acinetobacter baumannii = assay: microbe, parasite or virus in culture; conditions: ATCC 19606, 18 h, ASSAY_TEST Inhibition of Bacterial Growth, detection method Absorption (OD600), MEDIA CAMHB, plate type 384well, NBS, CORNING #3640
Description: Antibacterial activity against Acinetobacter baumannii ATCC 19606 (CO-ADD:GN_034); MIC in CAMBH media using NBS plates, by OD600

Staphylococcus aureus = assay: microbe, parasite or virus in culture; conditions: ATCC 43300, 18 h, ASSAY_TEST Inhibition of Bacterial Growth, detection method Absorption (OD600), MEDIA CAMHB, plate type 384well, NBS, CORNING #3640
Description: Antibacterial activity against Staphylococcus aureus MRSA ATCC 43300 (CO-ADD:GP_020); MIC in CAMBH media, using NBS plates, by OD(600)

HEK293 = assay: cells; format: functional; conditions: Homo sapiens, ATCC CRL1573, HEK293; ASSAY_TEST Inhibition of Cell Viability; detection method Resazurin; Fluorescence (ex560/em590); MEDIA DMEM with 10% FBS; plate type 384well; TC; CORNING #3712; time 18 hr
Pseudomonas aeruginosa = assay: microbe, parasite or virus in culture; conditions: ATCC 27853, 18 h, ASSAY_TEST Inhibition of Bacterial Growth, detection method Absorption (OD600), MEDIA CAMHB, plate type 384well, NBS, CORNING #3640
Description: Antibacterial activity against Pseudomonas aeruginosa ATCC 27853 (CO-ADD:GN_042); MIC in CAMBH media using NBS plates, by OD(600)

Escherichia coli = assay: microbe, parasite or virus in culture; conditions: ATCC 25922, 18 h, ASSAY_TEST Inhibition of Bacterial Growth, detection method Absorption (OD600), MEDIA CAMHB, plate type 384well, NBS, CORNING #3640
Description: Antibacterial activity against Escherichia coli ATCC 25922 (CO-ADD:GN_001); MIC in CAMBH media using NBS plates, by OD(600)

Klebsiella pneumoniae = assay: microbe, parasite or virus in culture; conditions: ATCC 700603, 18 h, ASSAY_TEST Inhibition of Bacterial Growth, detection method Absorption (OD600), MEDIA CAMHB, plate type 384well, NBS, CORNING #3640
Description: Antibacterial activity against Klebsiella pneumoniae MDR ATCC 70063 (CO-ADD:GN_003); MIC in CAMBH media using NBS plates, by OD(600)

Candida albicans = assay: microbe, parasite or virus in culture; conditions: ATCC 90028, ASSAY_TEST Inhibition of Fungal Growth, detection method Absorption (OD530), plate type 384well, NBS, CORNING #3640
Description: Antifungal activity against Candida albicans ATCC 90028 (CO-ADD:FG_001); MIC in YNB media using NBS plates, by OD630

Description for Cryptococcus neoformans: Antifungal activity against Cryptococcus neoformans H99 ATCC 208821 (CO-ADD:FG_002); MIC in YNB media using NBS plates, by Resazurin OD(600-570)

| Compound | MIC (Acinetobacter baumannii) | MIC (Cryptococcus neoformans) | MIC (Staphylococcus aureus) | MIC (Pseudomonas aeruginosa) | MIC (Escherichia coli) | MIC (Klebsiella pneumoniae) | MIC (Candida albicans) | CC50 (HEK293) |
| --- | --- | --- | --- | --- | --- | --- | --- | --- |
| CC1COC(Cn2cncn2)(c2ccc(Oc3ccc(Cl)cc3)cc2Cl)O1 (stereo unspecified) [DIFENOCONAZOLE] | > 10 µM | 0.625 µM (≈ 0.254 µg/mL) | > 10 µM | > 10 µM | > 10 µM | > 10 µM | 0.625 µM (≈ 0.254 µg/mL) | > 10 µM |
| CC(C)(C)C(O)C(Oc1ccc(-c2ccccc2)cc1)n1cncn1 (stereo unspecified) [BITERTANOL] | > 10 µM | 1.25 µM (≈ 0.422 µg/mL) | > 10 µM | > 10 µM | > 10 µM | > 10 µM | 5 µM (≈ 1.69 µg/mL) | > 10 µM |
| Nc1nc2cc(-c3cncc(Oc4ccc(F)cc4)c3)ccc2[nH]1 | > 10 µM | > 10 µM | > 10 µM | > 10 µM | > 10 µM | > 10 µM | > 10 µM | > 10 µM |
| COc1cccc(-c2nc3c(N4CCCC4)cccc3n2CC2CCCN2)n1 (stereo unspecified) | > 10 µM | > 10 µM | 10 µM (≈ 3.77 µg/mL) | > 10 µM | > 10 µM | > 10 µM | > 10 µM | > 10 µM |
| CO[C@H]1/C=C/O[C@@]2(C)Oc3c(C)c(O)c4c(O)c(/c(=C/NN5CCN(C)CC5)c(O)c4c3C2=O)=N\C(=O)/C(C)=C\C=C/[C@H](C)[C@H](O)[C@@H](C)[C@@H](O)[C@@H](C)[C@H](OC(C)=O)[C@@H]1C | > 10 µM | > 10 µM | ≤ 0.0781 µM | 5 µM (≈ 4.11 µg/mL) | 10 µM (≈ 8.23 µg/mL) | > 10 µM | > 10 µM | > 10 µM |
| CCc1nn(C)c(C(=O)NCc2ccc(Oc3ccc(C)cc3)cc2)c1Cl [TOLFENPYRAD] | > 10 µM | 10 µM (≈ 3.84 µg/mL) | > 10 µM | > 10 µM | > 10 µM | > 10 µM | > 10 µM | > 10 µM |
| CO/N=C(\C(=O)OC)c1ccccc1CO/N=C(\C)c1cccc(C(F)(F)F)c1 | > 10 µM | > 10 µM | > 10 µM | > 10 µM | > 10 µM | > 10 µM | > 10 µM | > 10 µM |
| Nc1ccc2ncnc(Nc3ccc(OCc4cccc(F)c4)c(Cl)c3)c2c1 | > 10 µM | > 10 µM | > 10 µM | > 10 µM | > 10 µM | > 10 µM | > 10 µM | > 10 µM |
| N=C(N)c1ccc(OCCCCCOc2ccc(C(=N)N)cc2)cc1 [PENTAMIDINE ISETHIONATE] | > 10 µM | > 10 µM | > 10 µM | > 10 µM | > 10 µM | > 10 µM | 0.312 µM | > 10 µM |
| O=C(Nc1nnc(-c2ccc(Cl)s2)o1)c1ccc(Cl)s1 | > 10 µM | > 10 µM | 10 µM (≈ 3.46 µg/mL) | > 10 µM | > 10 µM | > 10 µM | > 10 µM | > 10 µM |
| Cc1nc(-c2ccccn2)nc(N(C)CCc2ccccc2)c1Cl | > 10 µM | > 10 µM | > 10 µM | > 10 µM | > 10 µM | > 10 µM | > 10 µM | > 10 µM |
| COC(=O)Nc1nc2cc(C(=O)c3ccccc3)ccc2[nH]1 [MEBENDAZOLE] | > 10 µM | > 10 µM | > 10 µM | > 10 µM | > 10 µM | > 10 µM | > 10 µM | > 10 µM |
| FC(F)(F)c1cnc(Sc2nnc(-c3ccncc3)o2)c(Cl)c1 | > 10 µM | > 10 µM | 10 µM (≈ 3.59 µg/mL) | > 10 µM | > 10 µM | > 10 µM | > 10 µM | > 10 µM |
| CC(=O)NC[C@H]1CN(c2ccc(N3CCSCC3)c(F)c2)C(=O)O1 [SUTEZOLID] | > 10 µM | > 10 µM | 5 µM (≈ 1.77 µg/mL) | > 10 µM | > 10 µM | > 10 µM | > 10 µM | > 10 µM |
| NC(CC(=O)c1ccc(Cl)cc1Cl)C(Cl)(Cl)Cl (stereo unspecified) | > 10 µM | > 10 µM | > 10 µM | > 10 µM | > 10 µM | > 10 µM | > 10 µM | > 10 µM |
| Oc1c(I)cc(I)c2cccnc12 [IODOQUINOL] | > 10 µM | > 10 µM | > 10 µM | > 10 µM | > 10 µM | > 10 µM | > 10 µM | > 10 µM |
| O=C1O[C@@H](CO)CN1c1cc(F)c(C2=CCN(Cc3ccccc3)CC2)c(F)c1 | > 10 µM | > 10 µM | > 10 µM | > 10 µM | > 10 µM | > 10 µM | > 10 µM | > 10 µM |
| Cc1nc(-c2ccccn2)nc(N2CCC(Cc3ccccc3)C2)c1Cl (stereo unspecified) | > 10 µM | ≤ 0.0781 µM | > 10 µM | > 10 µM | > 10 µM | > 10 µM | 0.156 µM (≈ 0.057 µg/mL) | > 10 µM |
| Cc1[nH]c2ccccc2c1C(c1cccs1)N1CCN(C)CC1 (stereo unspecified) | > 10 µM | > 10 µM | > 10 µM | > 10 µM | > 10 µM | > 10 µM | 5 µM (≈ 1.63 µg/mL) | > 10 µM |

Further lines, with some results ahead:

| MIC (Acinetobacter baumannii) | MIC (Cryptococcus neoformans) | MIC (Staphylococcus aureus) | MIC (Pseudomonas aeruginosa) | MIC (Escherichia coli) | MIC (Klebsiella pneumoniae) | MIC (Candida albicans) | Compound | CC50 (HEK293) |
| --- | --- | --- | --- | --- | --- | --- | --- | --- |
| > 10 µM | > 10 µM | > 10 µM | > 10 µM | > 10 µM | > 10 µM | > 10 µM | Cc1cc(NCCc2ccccc2)nc(NC(=N)Nc2ccc(Cl)cc2)n1 | > 10 µM |
| > 10 µM | > 10 µM | > 10 µM | > 10 µM | > 10 µM | > 10 µM | > 10 µM | CC(C)(C)[C@H]1CC[C@H](CC2=C(O)C(=O)c3ccccc3C2=O)CC1 [BUPARVAQUONE] | > 10 µM |
| > 10 µM | > 10 µM | > 10 µM | > 10 µM | > 10 µM | > 10 µM | > 10 µM | c1csc(-c2cnc3sc(NCC4CCOCC4)nn23)c1 | > 10 µM |
| > 10 µM | > 10 µM | > 10 µM | > 10 µM | > 10 µM | > 10 µM | > 10 µM | CCN(CC)S(=O)(=O)c1ccc(C(=O)Nc2cc(C)nn2-c2nc(C)c(C)c(=O)[nH]2)cc1 | > 10 µM |
| > 10 µM | > 10 µM | > 10 µM | > 10 µM | > 10 µM | > 10 µM | > 10 µM | CCOC(=O)NC(=O)c1ccsc1NC(=O)c1nc2ccccc2s1 | > 10 µM |
| > 10 µM | > 10 µM | 10 µM (≈ 2.94 µg/mL) | > 10 µM | > 10 µM | > 10 µM | > 10 µM | c1ccc(-c2nc(NC3CCCCC3)cc(C3CC3)n2)nc1 | > 10 µM |
| > 10 µM | > 10 µM | > 10 µM | > 10 µM | > 10 µM | > 10 µM | > 10 µM | COc1cccc(-n2nnnc2S(=O)(=O)Cc2ccccc2)c1 | > 10 µM |
| > 10 µM | > 10 µM | > 10 µM | > 10 µM | > 10 µM | > 10 µM | > 10 µM | O=C([C@@H](c1ccc(Cl)cc1)c1cccnc1)N1CCN(c2ccc(C(F)(F)F)cc2)CC1 | > 10 µM |
| > 10 µM | > 10 µM | > 10 µM | > 10 µM | > 10 µM | > 10 µM | > 10 µM | Clc1cccc(C(c2ccc(CN3CCNCC3)cc2)n2ccnc2)c1 (stereo unspecified) | > 10 µM |
| > 10 µM | > 10 µM | > 10 µM | > 10 µM | > 10 µM | > 10 µM | > 10 µM | O=C(Nc1nnc(-c2ccc(Cl)cc2)o1)c1cccc(C(F)(F)F)c1 | > 10 µM |
| > 10 µM | > 10 µM | > 10 µM | > 10 µM | > 10 µM | > 10 µM | > 10 µM | CCCCCCCCCCCCCCCCOP(=O)([O-])OCC[N+](C)(C)C [MILTEFOSINE] | > 10 µM |
| > 10 µM | > 10 µM | > 10 µM | > 10 µM | > 10 µM | > 10 µM | > 10 µM | O=C(Nc1ccc(N2CCNCC2)cc1)c1ccn2ncc(-c3cccc(Cl)c3)c2n1 | 9.02 µM |
| > 10 µM | > 10 µM | 1.25 µM (≈ 0.448 µg/mL) | > 10 µM | > 10 µM | > 10 µM | > 10 µM | CC(=O)NCC1CN(c2ccc(-c3ccc(CO)cc3)c(F)c2)C(=O)O1 (stereo unspecified) | > 10 µM |
